Assay results: patent US20110046107A1, “SULFONYL-SUBSTITUTED CARBAPENEM COMPOUNDS” (priority 2007, published 2011)
Values after ≈ are worked out from the molar mass of the structure shown. Read-outs that look alike come from different tables or passages of the source.

Assays:
Citrobacter freundii = test: In vitro antibacterial activity, agar dilution method (clinical isolates); format: cell-based; conditions: clinically isolated strains, Gram-negative
Description: (§1) Bacterial strains for test: All the bacterial strains are clinical isolates and purchased from public organizations. methicillin-sensitive staphylococcus aureus (MS SA), methicillin-resistant staphylococcus aureus (MRSA), methicillin-sensitive staphylococcus epidermidis (MSSE), methicillin-resistant staphylococcus epidermidis (MRSE), streptococcus pyogenes, penicillin-sensitive streptococcus pneumoniae (PSSP), penicillin-resistant streptococcus pneumoniae (PRSP), Escherichia coli, Citrobacter freundii, Enterobacter cloacae, Hemophilus influenza, Klebsiella pneumonia (producing ESBL), Morganella morganii, Proteus mirabilis, Serratia marcescens, and Pseudomonas aeruginosa.
(§2) Drugs to be tested: compounds of the invention prepared in the examples; the chemical names, structural formulae, preparation materials, and preparation methods are provided in the preparation examples of the compounds;
(§3) Meropenem (Meropenem for injection), Ertapenem (Ertapenem for injection), and Doripenem (Doripenem for injection) commercially available
(§4) Experimental method: the agar dilution method, by reference to Methodology of Pharmacological Experiment (XU Shuyun et al, published by the Peoples Medical Publishing House, 1st Edition, August, 1982; 3rd Edition, 5th printing, January 2002, p 1659-1660).

Enterobacter cloacae = test: as above; format: cell-based; conditions: read-out: MIC90 Enterobacter cloacae
Description: as §1, §2, §3, §4

Escherichia coli = test: as above; format: cell-based; conditions: clinically isolated strains, Gram-negative, read-out: MIC90 E. coli
Description: as §1, §2, §3, §4

Hemophilus influenza = test: as above; format: cell-based; conditions: read-out: MIC90 Hemophilus influenza
Description: as §1, §2, §3, §4

[1] = test system: Klebsiella pneumonia (producing ESBL); test: as above; format: cell-based; conditions: Klebsiella pneumoniae, read-out: MIC90 Klebsiella pneumonia
Description: as §1, §2, §3, §4

Morganella morganii = test: as above; format: cell-based; conditions: clinically isolated strains, Gram-negative
Description: as §1, §2, §3, §4

Proteus mirabilis = test: as above; format: cell-based; conditions: clinically isolated strains, Gram-negative, agar dilution, read-out: MIC90 Proteus mirabilis
Description: as §1, §2, §3, §4

Pseudomonas aeruginosa = test: as above; format: cell-based; conditions: clinically isolated strains, Gram-negative
Description: as §1, §2, §3, §4

Serratia marcescens = test: as above; format: cell-based; conditions: read-out: MIC90 Serratia marcescens
Description: as §1, §2, §3, §4

[2] = test system: methicillin-resistant staphylococcus aureus (MRSA); test: as above; format: cell-based; conditions: clinically isolated strains, Gram-positive, read-out: MIC90 S. aureus MRSA
Description: as §1, §2, §3, §4

[3] = test system: methicillin-resistant staphylococcus epidermidis (MRSE); test: as above; format: cell-based; conditions: clinically isolated strains, Gram-positive, read-out: MIC90 S. epidermidis MRSE
Description: as §1, §2, §3, §4

[4] = test system: methicillin-sensitive staphylococcus aureus (MSSA); test: as above; format: cell-based; conditions: read-out: MIC90 S. aureus MSSA
Description: as §1, §2, §3, §4

[5] = test system: methicillin-sensitive staphylococcus epidermidis (MSSE); test: as above; format: cell-based; conditions: read-out: MIC90 S. epidermidis MSSE
Description: as §1, §2, §3, §4

[6] = test system: penicillin-resistant streptococcus pneumoniae (PRSP); test: as above; format: cell-based; conditions: clinically isolated strains, Gram-positive, read-out: MIC90 S. pneumoniae PRSP
Description: as §1, §2, §3, §4

[7] = test system: penicillin-sensitive streptococcus pneumoniae (PSSP); test: as above; format: cell-based; conditions: clinically isolated strains, Gram-positive, read-out: MIC90 S. pneumoniae PSSP
Description: as §1, §2, §3, §4

streptococcus pyogenes = test: as above; format: cell-based; conditions: clinically isolated strains, Gram-positive, read-out: MIC90 S. pyogenes
Description: as §1, §2, §3, §4

[8] = Pharmacokinetic study of the compounds in SD rat (intravenous injection); format: in vivo, SD male rats; conditions: in vivo, SD male rats, intravenous injection 10 mg/kg, plasma, X ± SD, n = 3, read-out: t1/2 (half lives) (converted)
Method: Test drugs: the compound 1, 6, 8 and 9 prepared in the examples
Control drugs: Meropenem (Meropenem for injection), commercially available; Doripenem (Doripenem for Injection).
Internal standard substance: Warfarin, a white powder, purity 99%, batch number: 0072-8501, provided by Shanghai Institute for Drug Control.
Drug formulation: the test drugs were formulated before use by being dissolved in physiological saline to make a final concentration of 5 mg/mL for intravenous injection.
Test animal: SD male rats, weight: 200˜250 g, purchased from SHANGHAI SLAC LABORATORY ANIMAL CO. LTD.
Drug administration: The SD male rats were randomly divided into five groups with 3 in each group, and given the drugs by intravenous injection at a dose of 10 mg/kg. The animals were weighed before administration.
Collection of Samples: Zero time was marked before administration; 0.5 mL of blood was respectively sampled from orbit venous plexus at 5 min, 15 min, 30 min, 45 min, 1 h, 2 h, 4 h, 6 h, 8 h, 24 h after administration into heparinized centrifuge tubes. The samples were centrifuged for 6 minutes at 8000 rpm and the supernatant plasma was separated. The plasma was frozen at −20° C. for LC-MS/MS analysis.
Chromatographic conditions: column: Gemini C6-Phenyl (50 mm×4.6 mm, 5 μm); mobile phase: 0.1% of formic acid-water-acetonitrile (5:35:60, v/v/v); flow rate: 1 mL/min; column temperature: 35-40° C.; injection volume: 5 μL; split ratio: 1/5.
Mass spectrometer conditions: scanning mode: cation multiple reactions monitoring (MRM); ion source: electrospray ionization (ESI); Nebulize gas: 8 L/min; Curtain gas: 8 L/min; Collision gas: 4 L/min; Ionspray voltage: 4500 v; Temperature: 400° C./500° C.
Preparation of the Standard Curve and Quality-Control Sample: a Suitable Amount of the test drug was weighed precisely and then formulated into a stock solution (2.6 mg/mL) with ultrapure water. The stock solution was diluted with methanol to obtain a series of working solutions in a concentration of 25000, 5000, 2500, 500, 250 and 50 ng/mL, respectively. 100 μL of plasma samples were separately added into 20 μL of said working solutions to obtain the calibration solutions in a concentration of 5000, 1000, 500, 100, 50 and 10 ng/mL. By the same method, the quality-controlled sample solutions in a concentration of 4000, 800 and 20 ng/mL can be prepared. A standard curve was obtained by chromatographic analysis of the samples.
Sample preparation: 20 μL of acetonitrile and 200 μL (200 ng/mL) of Warfarin in acetonitrile were added into 100 μL of plasma sample, then spun for 1 minute and centrifuged for 5 minutes at 15000 rpm. 100 μL of the supernatant was taken, where 3 μL aliquot of the supernatant was used for the LC/MS/MS analysis.
Dosing concentration: The accuracy of the drug concentration in dosing solution for intravenous injection was 103.2%, determined by analysis of the formulated drugs using HPLC and comparison with the standards.
Data analysis: The drug concentration in plasma would be considered as zero if under the detection limit (10 ng/mL). The pharmacokinetics parameters were calculated by the non-compartment model using Winnonlin Professional 5.2 pharmacokinetics software.
Pharmacokinetics: The pharmacokinetics parameters and drug concentration-time curve were obtained by measuring the plasma drug concentration at different time points.

[9] = clinically isolated strains, Gram-negative, agar dilution
[10] = clinically isolated strains (producing ESBL), Gram-negative, agar dilution
[11] = clinically isolated strains, Gram-positive, agar dilution

SMILES	MIC90 (Citrobacter freundii) [µg/mL]	MIC90 (Enterobacter cloacae; [9]) [µg/mL]	MIC90 (Escherichia coli) [µg/mL]	MIC90 (Hemophilus influenza) [µg/mL]	MIC90 [1, 10] [µg/mL]	MIC90 (Morganella morganii) [µg/mL]	MIC90 (Proteus mirabilis) [µg/mL]	MIC90 (Pseudomonas aeruginosa) [µg/mL]	MIC90 (Serratia marcescens; [9]) [µg/mL]	MIC90 [2] [µg/mL]	MIC90 [3] [µg/mL]	MIC90 [4, 11] [µg/mL]	MIC90 [5, 11] [µg/mL]	MIC90 [6] [µg/mL]	MIC90 [7] [µg/mL]	MIC90 (streptococcus pyogenes) [µg/mL]	half-life [8] [min]	MIC90 (Hemophilus influenza; [9]) [µg/mL]	MIC90 (Serratia marcescens) [µg/mL]	also measured
C[C@@H](O)[C@H]1C(=O)N2C(C(=O)O)=C(SC3CN(S(N)(=O)=O)C3)[C@H](C)[C@H]12 [Compound 1, (4R,5S,6S)-3-[N-aminosulfonyl-azetidin-3-yl]thio-6-[(1R)-1-hydroxyethyl]-4-methyl-7-oxo-1-aza-bicyclo-[3.2.0]hept-2-ene-2-carboxylic acid]	0.016 (≈ 0.0424 µM)	0.063 (≈ 0.167 µM)	0.008 (≈ 0.0212 µM)	0.063 (≈ 0.167 µM)	0.032 (≈ 0.0848 µM)	0.032 (≈ 0.0848 µM)	0.63 (≈ 1.67 µM)	4 (≈ 10.6 µM)	0.063 (≈ 0.167 µM)	4 (≈ 10.6 µM)	4 (≈ 10.6 µM)	0.032 (≈ 0.0848 µM)	0.063 (≈ 0.167 µM)	0.5 (≈ 1.32 µM)	0.008 (≈ 0.0212 µM)	0.004 (≈ 0.0106 µM)	19.2 ± 1.2			
C[C@@H](O)[C@H]1C(=O)N2C(C(=O)O)=C(SC3CN(S(=O)(=O)N(C)C)C3)[C@H](C)[C@H]12 [Compound 6, (4R,5S,6S)-3-[1-(N,N-dimethylaminosulfonyl)-azetidin-3-yl]-thio-6-[(1R)-1-hydroxyethyl]-4-methyl-7-oxo-1-aza-bicyclo-[3.2.0]hept-2-ene-2-carboxylic acid]	0.063 (≈ 0.155 µM)	0.25 (≈ 0.617 µM)	0.016 (≈ 0.0395 µM)		0.125 (≈ 0.308 µM)	0.063 (≈ 0.155 µM)	0.063 (≈ 0.155 µM)	16 (≈ 39.5 µM)	0.063 (≈ 0.155 µM)	8 (≈ 19.7 µM)	16 (≈ 39.5 µM)	0.063 (≈ 0.155 µM)	0.063 (≈ 0.155 µM)	1 (≈ 2.47 µM)	0.004 (≈ 0.00986 µM)	0.008 (≈ 0.0197 µM)	18 ± 1.8	0.25 (≈ 0.617 µM)		
C[C@@H](O)[C@H]1C(=O)N2C(C(=O)O)=C(S[C@H]3CCN(S(N)(=O)=O)C3)[C@H](C)[C@H]12 [Compound 2, (4R,5S,6S)-3-[(3S)-N-aminosulfonyl-pyrrolidin-3-yl]thio-6-[(1R)-1-hydroxyethyl]-4-methyl-7-oxo-1-aza-bicyclo-[3.2.0]hept-2-ene-2-carboxylic acid]	0.032 (≈ 0.0817 µM)		0.016 (≈ 0.0409 µM)	0.125 (≈ 0.319 µM)		0.063 (≈ 0.161 µM)	0.63 (≈ 1.61 µM)	8 (≈ 20.4 µM)		16 (≈ 40.9 µM)	8 (≈ 20.4 µM)	0.063 (≈ 0.161 µM)	0.063 (≈ 0.161 µM)	0.5 (≈ 1.28 µM)	0.016 (≈ 0.0409 µM)	0.008 (≈ 0.0204 µM)			0.125 (≈ 0.319 µM)	MIC90 (Enterobacter cloacae): 0.125 µg/mL (≈ 0.319 µM); MIC90 [1]: 0.125 µg/mL (≈ 0.319 µM)
CCCCN(CCCC)S(=O)(=O)N1CC(SC2=C(C(=O)O)N3C(=O)[C@H]([C@@H](C)O)[C@H]3[C@H]2C)C1 [Compound 8, (4R,5S,6S)-3-[1-(N,N-dibutylaminosulfonyl)-azetidin-3-yl]thio-6-[(1R)-1-hydroxyethyl]-4-methyl-7-oxo-1-aza-bicyclo-[3.2.0]hept-2-ene-2-carboxylic acid]	0.016 (≈ 0.0327 µM)		0.016 (≈ 0.0327 µM)		0.032 (≈ 0.0654 µM)	0.032 (≈ 0.0654 µM)	0.063 (≈ 0.129 µM)	8 (≈ 16.3 µM)		8 (≈ 16.3 µM)	8 (≈ 16.3 µM)			1 (≈ 2.04 µM)	0.004 (≈ 0.00817 µM)	0.004 (≈ 0.00817 µM)	16.2 ± 1.8	0.125 (≈ 0.255 µM)	0.125 (≈ 0.255 µM)	MIC90 (Enterobacter cloacae): 0.125 µg/mL (≈ 0.255 µM); MIC90 [4]: 0.125 µg/mL (≈ 0.255 µM); MIC90 [5]: 0.125 µg/mL (≈ 0.255 µM)
C[C@@H](O)[C@H]1C(=O)N2C(C(=O)O)=C(SC3CN(S(=O)(=O)NCC(O)CN)C3)[C@H](C)[C@H]12 (stereo partly drawn) [Compound 9, (4R,5S,6S)-3-[1-(2-hydroxy-3-aminopropylaminosulfonyl)-azetidin-3-yl]thio-6-[(1R)-1-hydroxyethyl]-4-methyl-7-oxo-1-aza-bicyclo-[3.2.0]-hept-2-ene-2-carboxylic acid]																	19.2 ± 3.6			
C[C@@H](O)[C@H]1C(=O)N2C(C(=O)O)=C(SC3CNCN(S(N)(=O)=O)C3)[C@H](C)[C@H]12 (stereo partly drawn) [Compound 5, (4R,5S,6S)-3-[1(2H)-aminosulfonyl-tetrahydropyrimidin-5-yl]-thio-6-[(1R)-1-hydroxyethyl]-4-methyl-7-oxo-1-aza-bicyclo-[3.2.0]hept-2-ene-2-carboxylic acid]	0.032 (≈ 0.0787 µM)	0.25 (≈ 0.615 µM)	0.032 (≈ 0.0787 µM)			0.063 (≈ 0.155 µM)	0.063 (≈ 0.155 µM)	16 (≈ 39.4 µM)	0.063 (≈ 0.155 µM)	16 (≈ 39.4 µM)	16 (≈ 39.4 µM)	0.25 (≈ 0.615 µM)		1 (≈ 2.46 µM)	0.016 (≈ 0.0394 µM)	0.016 (≈ 0.0394 µM)		0.125 (≈ 0.308 µM)		MIC90 [1]: 0.125 µg/mL (≈ 0.308 µM); MIC90 [5]: 0.125 µg/mL (≈ 0.308 µM)
C[C@@H](O)[C@H]1C(=O)N2C(C(=O)[O-])=C(SC3CN(S(=O)(=O)NCC(O)CN)C3)[C@H](C)[C@H]12.[Na+] (stereo partly shown) [sodium salt of compound 9]	0.032	0.063	0.016	0.125	0.063	0.032	0.63	16		16	8	0.032	0.063	0.5	0.008	0.008			0.125	
